Patent publication US11834458B2, “Anti-cancer nuclear hormone receptor-targeting compounds” (Nuvation Bio Inc., priority 2021, dated 2023)
Where two headings read alike, the source gives them in different places.

Columns and labels:
[1] = target: Progesterone PR-B receptors (Homo sapiens (Human), UniProt P06401); assay: PR binding assay; details: human breast carcinoma T47D cells, 0.5 nM [3H]Progesterone, 20 hours at 4° C.
Protocol: PR binding assay: Progesterone PR-B receptors from human breast carcinoma T47D cells were used in modified Na2HPO4/NaH2PO4 buffer pH 7.4. Compounds were screened at a range of doses (Top dose 40 nM, 4 fold serial dilution, 8 point dose response) and dispensed into the assay plate. Supernatant of 1.2×10^5 cells aliquot were added to the assay plate and incubated with 0.5 nM [^3H]Progesterone for 20 hours at 4° C. Membranes were filtered and washed, the filters were then counted to determine [^3H]Progesterone specifically bound. Binding IC50 was determined as the concentration where 50% inhibition of radioligand binding was observed.

[2] = target: ligand binding domain of the glucocorticoid receptor (Homo sapiens (Human), UniProt P04150); assay: GR antagonism assay; type: cell-based; details: HEK293 cells stably expressing GR ligand binding domain, dexamethasone 1.5 nM, 20 h
Protocol: GR antagonism assay: To evaluate GR antagonist activity, test compound was added to the assay plate (top dose 5 μM, 4 fold serial dilution, 8 point dose response). HEK293 cells stably expressing the ligand binding domain of the glucocorticoid receptor were seeded at a density of 40,000 cells/well in the assay plate. The assay plate was then incubated at 37° C., 5% CO2 for 30 minutes. Dexamethasone was added to the assay plate at 1.5 nM final concentration and the assay plate was incubated at 37° C., 5% CO2 for 20 h. After the incubation period, Dual-glo luciferase reagent was added to the assay plate and mixed at room temperature for 20 minutes on an orbital shaker, before reading out on the EnVision plate reader.

T47D cells = assay: Cell viability assay, T47D; type: cell-based; details: Homo sapiens, T47D, 144 h, read-out: T47D (GI50, nM)
Protocol: Cell viability assay: LNCap, 22Rv1, MCF7, MDAMB361, T47D, and IEC6 cells are seeded at a density of 500-2000 cells/well in 96 well plates, and a ‘T0’ (timepoint 0) was included along with the assay plate. The plates are then incubated at 37° C., 5% CO2 in a cell culture incubator overnight. On the next day, the ‘T0’ plate was assayed using CellTiterGlo (Promega, Inc) according to the manufacturer's instructions. The appropriate compounds are diluted in DMSO and added to the assay plate (final DMSO concentration of 0.1-0.2%) on the next day. The assay plates are incubated for 6 days at 37° C., 5% CO2. After the incubation period, the plates are assayed using CellTiterGlo (Promega, Inc) according to the manufacturer's instructions and luminescence was read on the EnVision plate reader. Inhibition of the tested compounds was determined by the following formula: Inhibition rate (%)=(1−(RLU compound−RLU day0)/(RLU control−RLU day0))*100%. GraphPadPrism was used to analyze the data and determine GI50/IC50 values.

LNCap cells = assay: Cell viability assay, LNCap; type: cell-based; details: Homo sapiens, LNCaP, 144 h, read-out: LNCap (GI50, nM)
Summary of the method: (§1)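 Cells seeded overnight at 37 °C, 5% CO2, with a T0 plate read at compound addition; compounds added in DMSO (final 0.1-0.2%) for 6 days. CellTiterGlo luminescence; inhibition calculated relative to day-0 and vehicle signals, giving GI50/IC50 values.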

[3] = target: Progesterone Receptor (PR)-LBD (Homo sapiens (Human), UniProt P06401); assay: PR coactivator antagonist assay; type: biochemical; details: 2.5 nM PR-LBD and coactivator peptide, 10 nM progesterone-induced fluorescence response; read-out: PR antagonism
Protocol: PR coactivator antagonist assay: Test compound (Top dose 10 μM, 4 fold serial dilution, 8 point dose response) and/or vehicle was incubated with the 2.5 nM Progesterone Receptor (PR)-LBD and coactivator peptide for 30 minutes at RT. Determination of the amount of complex formed was read spectrofluorimetrically (excitation: 337 nm, emission: 520/490 nm). Test compound-induced inhibition of 10 nM progesterone-induced fluorescence response by 50 percent or more (≥50%) indicates receptor antagonist activity.

[4] = target: full-length androgen receptor (Homo sapiens (Human), UniProt P10275); assay: AR antagonism assay; type: cell-based; details: HEK293 cells stably expressing full-length androgen receptor, testosterone 1 nM, 20 h; read-out: AR antagonism
IEC6 cells = assay: Cell viability assay, IEC6; type: cell-based; details: Rattus norvegicus, IEC-6, 144 h, read-out: IEC-6 (IC50, nM)
Summary of the method: as §1

GR = GR (Homo sapiens (Human), UniProt P04150); assay: GR binding assay; details: cytosol from IM-9 cells, 3H-Dexamethasone 1.5 nM, 4° C. 24 hrs
Protocol: GR binding assay: To assess GR binding, test compound (top dose 1 μM, 4 fold serial dilution, 8 point dose response) and control (dexamethasone) were transferred to the assay plate. Cytosol from IM-9 cells was added to the plate, followed by addition of radiolabeled ^3H-Dexamethasone at a final concentration of 1.5 nM. The plate was sealed, and the reaction was incubated at 300 rpm at 4° C. for 24 hrs. Radioligand absorption buffer (10 mM Tris-HCl, pH 7.4; 1.5 mM EDTA; 1 mM DTT; 0.25% charcoal; 0.0025% dextran) was then added to the plate, mixed, and incubated at 4° C. for 15 minutes. The plate was then centrifuged at […] for 30 minutes at 4° C. The supernatant was transferred to the scint-tube and Tri-carb was used for scintillation counting. The data was analyzed using GraphPadPrism v5.0 and binding IC50 was determined as the concentration where 50% inhibition of radioligand binding was observed.

AR = AR (Homo sapiens (Human), UniProt P10275, T878A); assay: AR binding assay
Sequence of AR (P10275 whole entry T878A): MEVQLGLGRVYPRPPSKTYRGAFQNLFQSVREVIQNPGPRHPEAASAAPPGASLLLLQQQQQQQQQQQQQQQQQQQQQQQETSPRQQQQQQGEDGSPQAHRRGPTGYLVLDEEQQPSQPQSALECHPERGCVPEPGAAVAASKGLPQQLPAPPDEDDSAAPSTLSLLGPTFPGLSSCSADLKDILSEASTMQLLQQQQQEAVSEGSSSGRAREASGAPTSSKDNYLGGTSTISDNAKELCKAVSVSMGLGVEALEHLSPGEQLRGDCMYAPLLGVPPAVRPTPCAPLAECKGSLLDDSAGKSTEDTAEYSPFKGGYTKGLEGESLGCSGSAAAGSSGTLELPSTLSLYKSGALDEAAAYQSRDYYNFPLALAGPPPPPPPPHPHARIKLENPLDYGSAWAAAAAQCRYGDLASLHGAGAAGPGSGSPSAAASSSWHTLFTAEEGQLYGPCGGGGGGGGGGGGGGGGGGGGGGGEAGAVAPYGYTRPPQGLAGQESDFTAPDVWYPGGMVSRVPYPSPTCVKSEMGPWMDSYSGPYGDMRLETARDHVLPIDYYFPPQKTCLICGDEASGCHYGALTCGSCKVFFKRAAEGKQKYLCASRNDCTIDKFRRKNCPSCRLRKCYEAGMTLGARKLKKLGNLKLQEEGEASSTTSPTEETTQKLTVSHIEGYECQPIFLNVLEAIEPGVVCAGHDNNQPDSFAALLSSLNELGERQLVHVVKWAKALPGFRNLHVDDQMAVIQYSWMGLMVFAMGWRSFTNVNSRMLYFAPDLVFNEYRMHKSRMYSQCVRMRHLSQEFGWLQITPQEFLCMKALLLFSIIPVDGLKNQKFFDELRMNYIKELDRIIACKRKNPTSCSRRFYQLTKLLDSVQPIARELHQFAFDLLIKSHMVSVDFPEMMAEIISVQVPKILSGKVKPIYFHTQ

Sequence of Progesterone PR-B receptors (P06401 whole entry): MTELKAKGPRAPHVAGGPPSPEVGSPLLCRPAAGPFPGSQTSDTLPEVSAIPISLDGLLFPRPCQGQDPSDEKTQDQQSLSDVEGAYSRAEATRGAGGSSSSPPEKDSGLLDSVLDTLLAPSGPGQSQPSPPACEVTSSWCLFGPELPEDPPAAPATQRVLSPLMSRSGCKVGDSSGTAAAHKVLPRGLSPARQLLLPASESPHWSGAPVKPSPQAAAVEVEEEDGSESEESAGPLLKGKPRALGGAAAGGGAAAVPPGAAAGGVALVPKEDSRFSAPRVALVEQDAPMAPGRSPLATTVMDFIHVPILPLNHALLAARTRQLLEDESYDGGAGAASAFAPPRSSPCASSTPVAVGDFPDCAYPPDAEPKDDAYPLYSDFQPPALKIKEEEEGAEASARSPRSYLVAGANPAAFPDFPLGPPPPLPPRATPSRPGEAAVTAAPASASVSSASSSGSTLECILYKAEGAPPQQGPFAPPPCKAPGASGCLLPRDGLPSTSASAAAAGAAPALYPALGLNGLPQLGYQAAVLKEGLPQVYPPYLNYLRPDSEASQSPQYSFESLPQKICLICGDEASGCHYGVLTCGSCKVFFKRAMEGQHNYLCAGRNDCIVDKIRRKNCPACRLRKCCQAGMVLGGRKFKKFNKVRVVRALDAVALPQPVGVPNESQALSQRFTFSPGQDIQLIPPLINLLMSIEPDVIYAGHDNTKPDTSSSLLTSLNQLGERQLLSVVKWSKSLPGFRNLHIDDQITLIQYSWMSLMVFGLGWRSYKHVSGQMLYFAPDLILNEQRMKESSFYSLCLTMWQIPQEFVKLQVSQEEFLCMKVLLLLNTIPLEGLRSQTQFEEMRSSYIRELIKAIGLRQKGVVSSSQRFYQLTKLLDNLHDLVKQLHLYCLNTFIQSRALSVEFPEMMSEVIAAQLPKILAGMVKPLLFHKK
Sequence of Progesterone Receptor (PR)-LBD (P06401 679-913, species assumed): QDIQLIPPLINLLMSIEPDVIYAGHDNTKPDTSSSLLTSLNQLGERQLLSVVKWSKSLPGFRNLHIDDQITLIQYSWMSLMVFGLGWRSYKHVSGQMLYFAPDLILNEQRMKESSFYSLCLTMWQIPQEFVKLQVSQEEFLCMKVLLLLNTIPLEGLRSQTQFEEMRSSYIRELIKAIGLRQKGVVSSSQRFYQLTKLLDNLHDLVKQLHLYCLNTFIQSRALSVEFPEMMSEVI
Sequence of ligand binding domain of the glucocorticoid receptor (P04150 524-758): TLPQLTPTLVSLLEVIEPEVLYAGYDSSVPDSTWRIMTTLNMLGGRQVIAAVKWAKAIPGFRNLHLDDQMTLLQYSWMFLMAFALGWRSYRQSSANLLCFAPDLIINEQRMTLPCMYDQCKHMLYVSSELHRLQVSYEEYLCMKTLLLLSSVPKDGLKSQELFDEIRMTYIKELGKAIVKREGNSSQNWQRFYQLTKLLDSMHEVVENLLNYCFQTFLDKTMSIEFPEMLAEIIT
Sequence of GR (P04150 whole entry): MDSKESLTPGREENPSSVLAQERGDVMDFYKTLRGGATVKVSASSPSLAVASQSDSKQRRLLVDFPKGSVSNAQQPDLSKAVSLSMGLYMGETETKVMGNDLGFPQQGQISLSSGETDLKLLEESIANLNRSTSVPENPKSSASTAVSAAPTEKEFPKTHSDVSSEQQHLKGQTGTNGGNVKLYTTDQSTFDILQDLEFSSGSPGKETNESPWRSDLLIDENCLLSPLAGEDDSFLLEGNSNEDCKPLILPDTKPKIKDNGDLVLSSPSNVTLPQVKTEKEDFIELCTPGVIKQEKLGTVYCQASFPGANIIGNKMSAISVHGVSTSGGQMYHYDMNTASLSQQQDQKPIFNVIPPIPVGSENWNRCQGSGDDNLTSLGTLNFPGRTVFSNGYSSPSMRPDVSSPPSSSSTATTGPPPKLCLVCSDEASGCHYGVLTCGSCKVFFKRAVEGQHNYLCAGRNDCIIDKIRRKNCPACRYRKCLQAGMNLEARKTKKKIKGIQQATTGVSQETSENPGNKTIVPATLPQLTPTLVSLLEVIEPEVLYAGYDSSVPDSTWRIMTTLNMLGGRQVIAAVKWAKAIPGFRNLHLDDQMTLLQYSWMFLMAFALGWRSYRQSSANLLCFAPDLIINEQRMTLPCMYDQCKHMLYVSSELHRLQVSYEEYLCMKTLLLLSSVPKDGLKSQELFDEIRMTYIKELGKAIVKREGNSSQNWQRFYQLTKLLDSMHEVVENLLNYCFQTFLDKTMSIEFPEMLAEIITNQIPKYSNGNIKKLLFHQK
Sequence of full-length androgen receptor (P10275 whole entry): as the sequence (P10275 whole entry T878A) above, with A878T counted along it

Row | Structure (SMILES) | IC50 [1] | IC50 [2] | GI50 (T47D cells) | GI50 (LNCap cells) | IC50 [3] | IC50 [4] | IC50 (IEC6 cells) | IC50 (GR) | IC50 (AR; cytosol from LnCaP cells, 3H-R1881 1 nM, 4° C. 24 hrs, read-out: AR binding) | IC50 (AR)
1 | CCc1c2c(nc3ccc(OC(=O)N4CCN(C(=O)CCCCCN(C)c5ccc([C@H]6C[C@@]7(C)[C@@H](CC[C@]7(OC(C)=O)C(C)=O)[C@@H]7CCC8=CC(=O)CCC8=C76)cc5)CC4)cc13)-c1cc3c(c(=O)n1C2)COC(=O)[C@]3(O)CC [Compound 3, (S)-4,11-diethyl-4-hydroxy-3,14-dioxo-3,4,12,14-tetrahydro-1H-pyrano[3′,4′:6,7]indolizino[1,2-b]quinolin-9-yl 4-(6-((4-((8S,11R,13S,14S,17R)-17-acetoxy-17-acetyl-13-methyl-3-oxo-2,3,6,7,8,11,12,13,14,15,16,17-dodecahydro-1H-cyclopenta[a]phenanthren-11-yl)phenyl)(methyl)amino)hexanoyl)piperazine-1-carboxylate] | < 0.01 µM | 0.01 to 0.5 µM | 10 to 500 nM | 10 to 500 nM | < 0.01 µM | 0.01 to 0.5 µM | 501 to 1000 nM | < 0.01 µM | < 0.01 µM | 
2 | CC[C@@]1(O)C(=O)OCc2c1cc1n(c2=O)Cc2cc3c(CN(C)C)c(OC(=O)N4CCN(CCCCCCN(C)c5ccc([C@H]6C[C@@]7(C)[C@@H](CC[C@]7(OC(C)=O)C(C)=O)[C@@H]7CCC8=CC(=O)CCC8=C76)cc5)CC4)ccc3nc2-1 [Compound 5, (S)-10-((dimethylamino)methyl)-4-ethyl-4-hydroxy-3,14-dioxo-3,4,12,14-tetrahydro-1H-pyrano[3′,4′:6,7]indolizino[1,2-b]quinolin-9-yl 4-(6-((4-((8S,11R,13S,14S,17R)-17-acetoxy-17-acetyl-13-methyl-3-oxo-2,3,6,7,8,11,12,13,14,15,16,17-dodecahydro-1H-cyclopenta[a]phenanthren-11-yl)phenyl)(methyl)amino)hexyl)piperazine-1-carboxylate] | < 0.01 µM | 0.01 to 0.5 µM | 10 to 500 nM | 10 to 500 nM | < 0.01 µM | > 1 µM | 501 to 1000 nM | < 0.01 µM |  | 0.01 to 0.5 µM
